The test system of one data set is L6 myotubes. Briefly: [3H]-2-deoxy-D-glucose (dGlc) uptake assay in L6 myotubes. The class given is cell-based. The note with it: for activity at 100 µM: Mean ± SD (n = 3), read-out: Effect on glucose uptake [100 μM] in L6 myotubes (%); for activity at 100 µM / rate of glucose uptake compared to vehicle (DMSO) treated control: 100 μM; for rate of glucose uptake compared to vehicle (DMSO) treated control: basal rate = 100%; for maximal effective concentration, glucose uptake: dose response, 5 h (3) or 12 h (4, 15). The procedure:
The effect of the various derivatives on the rate of glucose uptake in L6 myotubes was investigated. […] The abundance of GLUT1 and GLUT4 in the plasma membranes of L6 myotubes was determined in cells expressing GLUT-1myc or GLUT-4myc, as described before. […] In addition, the effect of compounds on the glucose—stimulated insulin secretion (GSIS) was investigated.
L6 myotubes were maintained as described in [21]. All experiments were conducted on fully differentiated myotubes.
The rate of [^3H]dGlc uptake in myotubes, in the absence or presence of insulin, was determined as described in [21]. […] […] The cultures were then rinsed 3 times with PBS at room temperature and incubated with PBS, pH 7.4, containing 0.1 mM dGlc and 1.0 μCi/ml [^3H]dGlc for 5 minutes at room temperature. At the end of the assay, the myotubes were lysed in 0.1% (w/v) SDS in water and taken for liquid scintillation.

The subject of the next data set is AMPK. Nature of the data set: Thr172 phosphorylation of AMPK in L6 myotubes, Western blot of whole cell lysates. The class given is cell-based. The note with it: for Thr172 phosphorylation in AMPK / AMPK activation (result in words): L6 myotubes. The protocol: The effect of the various derivatives on the rate of glucose uptake in L6 myotubes was investigated. […] The abundance of GLUT1 and GLUT4 in the plasma membranes of L6 myotubes was determined in cells expressing GLUT-1myc or GLUT-4myc, as described before. […] In addition, the effect of compounds on the glucose—stimulated insulin secretion (GSIS) was investigated. Whole cell lysates were prepared as previously described with some minor modifications: the lysis buffer contained 50 mM Tris-HCl, pH 7.5, 1 mM EDTA, 1 mM EGTA, 1 mM Na3VO4, 150 mM NaCl, 50 mM NaF, 10 mM sodium-glycerophosphate, 5 mM sodium pyrophosphate, and 1 mM PMSF, supplemented with 0.1% (v/v) NP-40, 0.1% (v/v) 2-β-mercaptoethanol, and protease inhibitor cocktail (1:100 dilution). The cells were washed by ice-cold PBS, and 1 ml of lysis buffer was then added and incubated at 4° C. for 40 minutes. The resulting cell lysates were centrifuged at 8,700 g×30 minutes at 4° C. and the resulting supernatant fractions were separated and kept at −20° C. until used. Protein content in the supernatant was determined according to Bradford, using a BSA standard dissolved in the same buffer. […] Samples for Western blot analyses of GLUT1 and GLUT4 were prepared as described in [22]. The proteins were separated on 10% SDS-PAGE and Western blot analyses performed using antibodies according to our previously established protocols.
For orientation: A western blot detects proteins with antibodies after separation by electrophoresis.

For a further data set, the system named is INS-1E cells. Briefly: Glucose-stimulated insulin secretion (GSIS) from INS-1E cells, insulin RIA. The class given is cell-based. The protocol: INS-1E cells (passages 70-90) were grown and maintained as described in Merglen A et al. Endocrinology 2004, 145:667-678.
To investigate the glucose—stimulated insulin secretion (GSIS) and insulin radioimmunoassay-confluent cultures of INS-1E cells were pre-incubated for 30 min in KRBH-BSA buffer containing 3.3 mM glucose. This was followed by 1-h incubation at 3.3 and an additional 1-h at 16.7 mM glucose, as described (1). Aliquots from the incubation buffers were collected, cleared by centrifugation and frozen until used for insulin RIA. Total insulin content in β-cells was similarly measured in aliquots of cell extracts (1). RIA kits rat insulin (Linco Research, St. Charles, Mo.) was used according to manufacturers' protocols.

“Also recorded” adds a separate entry of the source. Where two headings read alike, the source gives them in different places. Where only a bound is given, the exact number is not on record here.

The text below walks through data of US9409904B2, “Compounds and compositions for use in augmentation of glucose” (YISSUM RESEARCH DEVELOPMENT COMPANY OF THE HEBREW …, priority 2011, dated 2016).

On to `CCOc1ccc2nc(SCCC(=O)O)sc2c1` [Compound 25, 3-(6-ethoxybenzothiazol-2-ylthio)propanoic acid], for which the melting point (as a rule, the temperature, or range, at which the solid turns liquid) was in the range of 175 to 178 °C. Also, in the data set on L6 myotubes, the “rate of glucose uptake in L6 myotubes (result in words)” value (“rate of glucose uptake in L6 myotubes” below) was “increase”. Besides, the “increase of glucose uptake in comparison with vehicle-treated cells” value in the data set on L6 myotubes (50 μM, within 5 hours of incubation) is 1.8 fold. For the same compound, the “Thr172 phosphorylation in AMPK / AMPK activation (result in words)” value with AMPK is “activated AMPK”. In addition, the “time of maximal (peak) Thr172 phosphorylation in AMPK” value with AMPK (incubation time) stood at 60 min.

Consider `Cn1ccnc1S` [Compound 9, 2-mercapto-1-methylimidazole], for which the activity at 100 µM with L6 myotubes (Rattus norvegicus, L6, Table 1) is 93 ± 9.5%.

For `CCOc1ccc2nc(S(N)(=O)=O)sc2c1` [Compound 30, 6-ethoxybenzothiazole-2-sulfonamide], in the data set with L6 myotubes, the “rate of glucose uptake in L6 myotubes” value was “inactive”.

For `CCCNC(=O)CSc1nc2ccc(OCC)cc2s1` [Compound 33, 2-((6-ethoxybenzothiazol-2-yl)thio)-N-propylacetamide], in the data set with L6 myotubes, the “rate of glucose uptake in L6 myotubes” value is “increase; also recorded: markedly augmented”. Also, the “increase of rate of glucose uptake” value in the data set with L6 myotubes (100 μM within 5 hours of incubation) turned out to be 2 fold. For the same compound, the “time to significant Thr172 phosphorylation of AMPK” value with AMPK (incubation time) was found to be 5 h.

For the compound `Oc1ccc2nc(S)sc2c1` [Compound 19, 2-mercaptobenzothiazol-6-ol], the “rate of glucose uptake in L6 myotubes” value in the data set with L6 myotubes is reported as “did not stimulate”.

With `Sc1ncccn1` [Compound 8, 2-mercaptopyrimidine], the activity at 100 µM in the data set with L6 myotubes (Rattus norvegicus, L6, Table 1) is 100 ± 4.9%.

As for `Nc1nccs1` [Compound 10, 2-aminothiazole], the activity at 100 µM in the data set with L6 myotubes (Rattus norvegicus, L6, Table 1) worked out at 95.7 ± 5.1%.

As to `NC1=NC(=O)/C(=C\C=C\c2ccc([N+](=O)[O-])o2)S1` [Compound 2, (E)-2-Amino-5-((E)-3-(5-nitrofuran-2-yl)allylidene)thiazol-4(5H)-one], in the data set on L6 myotubes, the “rate of glucose uptake in L6 myotubes” value is recorded as “slightly increased”. The “concentrations at which effects on glucose uptake and Thr172 phosphorylation were observed” value in the data set with L6 myotubes (L6 myotubes, data not shown) is listed as “above 500 μM”. For the same compound, the “Thr172 phosphorylation in AMPK / AMPK activation (result in words)” value in the data set on AMPK is listed as “marginally induced”.

As for `Cc1nnc(N)s1` [Compound 6, 2-amino-5-methyl-1,3,4-thiadiazole], the activity at 100 µM in the data set with L6 myotubes (Rattus norvegicus, L6, Table 1) stood at 101 ± 5.5%.

Compound `CCCCSc1nc2ccc(O)cc2s1` [Compound 23, 2-(butylthio)benzothiazol-6-ol] gave a melting point of 80 to 85 °C.

As for `Nc1nncs1` [Compound 5, 2-amino-1,3,4-thiadiazole], the activity at 100 µM with L6 myotubes (Rattus norvegicus, L6, Table 1) amounted to 97.4 ± 2.9%.

The compound `CCCSc1nc2ccc(O)cc2s1` [Compound 20, 2-(propylthio)benzothiazol-6-ol] came in with a melting point of 67 to 70 °C. Moreover, the “rate of glucose uptake in L6 myotubes” value with L6 myotubes is listed as “increase”. Moreover, the “rate of glucose uptake in L6 myotubes” value with L6 myotubes (listed as EMM-45) is on record as “increases; also recorded: induced an increase; also recorded: induces stimulation”. In addition, the “glucose-stimulated insulin secretion from INS-1E cells (result in words)” value with INS-1E cells is recorded as “augments”. Besides, the “glucose stimulated insulin secretion in INS-1E” value in the data set with INS-1E cells (10 μM, indicated time periods) is “increased”. Also, the glucose-stimulated insulin secretion entry in the data set on INS-1E cells (25 μM) is recorded as “increased”.

On to `Oc1nc2ccc(Br)cc2s1` [Compound 15, 6-bromo-2-benzothiazolinone], for which, in the data set with L6 myotubes, the “persistence of stimulatory effect on glucose uptake” value worked out at 24 h; the “rate of glucose uptake in L6 myotubes” value was “increase”; the “rate of glucose uptake compared to vehicle (DMSO) treated control” value is 132.9%±13.8%; the “maximal effective concentration, glucose uptake” value stood at 100 µM. The activity at 100 µM in the data set with L6 myotubes (Rattus norvegicus, L6, Table 2) was determined as 133 ± 13.8%. The “Thr172 phosphorylation in AMPK / AMPK activation (result in words)” value with AMPK is recorded as “significantly induced”.

Turning to `CCOc1ccc2nc(N)sc2c1` [Compound 14, 6-ethoxybenzothiazol-2-amine], the activity at 100 µM with L6 myotubes (Rattus norvegicus, L6, Table 2) worked out at 111 ± 14.2%.

On to `c1cnc2[nH]nnc2c1` [Compound 16, 1H-1,2,3-triazolo[4,5]pyridine], for which the activity at 100 µM in the data set on L6 myotubes (Rattus norvegicus, L6, Table 2) stood at 86.7 ± 17.9%.

Take `c1ccc2[nH]c(SSc3nc4ccccc4[nH]3)nc2c1` [Compound 32, 1,2-di(1H-benziimidazol-2-yl)disulfane]: in the data set on L6 myotubes, the “rate of glucose uptake in L6 myotubes” value was “no stimulatory effect”.

With `CCC(CC)CSc1nc2ccc(O)cc2s1` [Compound 21, 2-(2-ethylbutylthio)benzothiazol-6-ol], the melting point was 105 to 110 °C.

For the compound `CCOc1ccc2nc(S)sc2c1` [Compound 4, 6-ethoxybenzo[d]thiazole-2-thiol], in the data set with L6 myotubes, the “persistence of stimulatory effect on glucose uptake” value is 24 h; the “rate of glucose uptake in L6 myotubes” value was “increase”; the “rate of glucose uptake compared to vehicle (DMSO) treated control” value was 172.4%±12.4%; the “maximal effective concentration, glucose uptake” value amounted to 100 µM. In addition, in the data set with L6 myotubes (Rattus norvegicus, L6, Table 2), the activity at 100 µM was found to be 172 ± 12.4%. In the data set on AMPK, the “Thr172 phosphorylation in AMPK / AMPK activation (result in words)” value was “significantly induced”.

Regarding `CCOc1ccc2nc(SSc3nc4ccc(OCC)cc4s3)sc2c1` [Compound 31, 1,2-bis(6-ethoxybenzothiazol-2-yl)disulfane], the melting point was in the range of 185 to 190 °C. The “rate of glucose uptake in L6 myotubes” value in the data set with L6 myotubes is “increase; also recorded: substantially increased”. For the same compound, the Emax in the data set with L6 myotubes (Rattus norvegicus, L6, 150 μM within 5 hours of incubation, read-out: maximal effect on rate of glucose uptake, compared with a non-treated control) came out at 189 ± 21.8%. Further, in the data set on L6 myotubes (listed as EMM-5), the “rate of glucose uptake in L6 myotubes” value is listed as “increases”. Further, in the data set on AMPK (incubation time), the “persistence of Thr172 phosphorylation of AMPK” value is “up to 5 hours” and the “time to induction of Thr172 phosphorylation in AMPK” value is at most 40 min. The “glucose-stimulated insulin secretion from INS-1E cells (result in words)” value in the data set with INS-1E cells is listed as “increases”.

For `Cn1cnnc1S` [Compound 7, 3-mercapto-4-methyl-4H-1,2,4-triazole], the activity at 100 µM in the data set with L6 myotubes (Rattus norvegicus, L6, Table 1) was 107 ± 7.5%.

In the case of `c1ccc2[nH]nnc2c1` [Compound 17, 1H-benzotriazole], the activity at 100 µM with L6 myotubes (Rattus norvegicus, L6, Table 2) was 87.5 ± 11.4%.

For the compound `Nc1ncc([N+](=O)[O-])s1` [Compound 12, 2-amino-5-nitrothiazole], the activity at 100 µM in the data set on L6 myotubes (Rattus norvegicus, L6, Table 1) is 95.1 ± 8.9%.

In the case of `c1ccc2scnc2c1` [Compound 13, benzothiazole], the activity at 100 µM in the data set with L6 myotubes (Rattus norvegicus, L6, Table 2) turned out to be 117 ± 9.7%.

Consider `SC1=NCCS1` [Compound 11, 2-mercapto-2-thiazoline], for which the activity at 100 µM with L6 myotubes (Rattus norvegicus, L6, Table 1) turned out to be 106 ± 6.8%.
